Tests used:
[1] = with the addition of BSA; cited from earlier work
[2] = Stability under ethylene oxide sterilization, heating and aging with paclitaxel; type: physicochemical; settings: formulated with paclitaxel
albumin = settings: cited from earlier work
[3] = Drug coated PTCA balloon catheter in pig blood vessels: residual drug on balloon and drug content in tissue by tissue extraction and HPLC; settings: after only 0.2-2 minutes of deployment; substance used as additive in the drug coating
From the text: 6 PTCA balloon catheters (3.5 and 3.0 mm in diameter and 20 mm in length) were inflated at 1-3 atm. […] The sufficient amount of drug on the balloon (3 microgram per square mm) was obtained. The inflated balloon was folded, and then dried. The coated folded balloon was then rewrapped and sterilized for animal testing.
The coated PTCA balloon catheter was inserted into target site in the blood vessels (LAD, LCX and RCA) in the 25-45 ib pig was inflated to 12 atm. […] The drug was delivered into the target tissue in 30-60 seconds. The balloon catheter was then deflated and was withdrawn from the animal body. The target blood vessel was harvested at 0.25-24 hours after inflation. The drug content in the target tissue and the residual drug remained on the balloon were analyzed by tissue extraction and HPLC. In some of the animal tests the stent was crimped on the drug coated balloon catheters prior to deployment.
All data is the average of five or six experimental data points.

[4] = 1 minute after intravenous injection in rats; cited from earlier work

CC(=O)O[C@H]1C(=O)[C@@]2(C)[C@H]([C@H](OC(=O)c3ccccc3)[C@]3(O)C[C@H](OC(=O)[C@H](O)[C@@H](NC(=O)c4ccccc4)c4ccccc4)C(C)=C1C3(C)C)[C@]1(OC(C)=O)CO[C@@H]1C[C@@H]2O [paclitaxel]
increase of solubility in PBS [1]: over 20 fold

O=C(O)c1ccccc1 [benzoic acid]
stability under ethylene oxide sterilization, heating, and aging process [2]: not stable

CO[C@H]1C[C@@H]2CC[C@@H](C)[C@@](O)(O2)C(=O)C(=O)N2CCCC[C@H]2C(=O)O[C@H]([C@H](C)C[C@@H]2CC[C@@H](O)[C@H](OC)C2)CC(=O)[C@H](C)/C=C(\C)[C@@H](O)[C@@H](OC)C(=O)[C@H](C)C[C@H](C)/C=C/C=C/C=C/1C [rapamycin]
protein bound (albumin): 92%

OCCNCCO [diethanolamine]
stability under ethylene oxide sterilization, heating, and aging process [2]: not stable

O=C1O[C@H](CO)[C@@H](O)[C@H]1O [ribonic acid lactone]
drug absorption by tissue / drug levels in tissue [3]: unexpectedly high

O=C(O)c1cc(O)ccc1O [gentisic acid]
stability under ethylene oxide sterilization, heating, and aging process [2]: not stable

O=C1O[C@H]([C@@H](O)CO)C(O)=C1O [ascorbic acid]
stability under ethylene oxide sterilization, heating, and aging process [2]: not stable

O=C1O[C@H](CO)[C@@H](O)[C@H](O)[C@H]1O [gluconolactone]
drug absorption by tissue / drug levels in tissue [3]: unexpectedly high

I-iothalamate
share of myocardial content found in the extravascular space [4]: approximately 80%

Source: patent publication US10881644B2, “Treatment of asthma and chronic obstructive pulmonary disease with anti-proliferate and anti-inflammatory drugs” (Lutonix, Inc., priority 2006, dated 2021)
